Measurements reported in PMC7367873, “Dissecting the sequence determinants for dephosphorylation by the catalytic subunits of phosphatases PP1 and PP2A” (Nature Communications, 2020).

Tested on: GAB2-pS210
Experiment: In vitro dephosphorylation of GAB2-pS210 (Western blot)
Format: biochemical, human
Conditions: GAB2-pS210 relative to GAB2, Calyculin A 20 nM 12 min in HeLa Kyoto cells, recombinant PP1c 1 µM, 1 h at 30 °C in lysate
Procedure: pEGFP(C1)-14-3-3β or pCMV-GAB2-3FLAG was transfected into HeLa Kyoto cells as described in the respective section for 24 h. Cells were incubated with or w/o 20 nM Calyculin A (# 9902 S, Cell Signaling Technology) in complete growth media for 12 min. Cells were washed twice on ice with cold PBS and after addition of 500 µL lysis buffer (100 mM NaCl, 10 mM Tris, 0.1% IGEPAL, 1 mM EDTA, 1 mM EGTA, 20 nM Calyculin A, 1x cOmplete Mini protease inhibitor cocktail (Sigma), 2 mM DTT, 2 mM MnCl2) cells were scraped from plates, lysed by 10 pushes through an injection needle and the insoluble fraction was pelleted by centrifugation (10 min, 10^4 rcf, 4 °C). […] Beads were then washed three times with lysis buffer and samples were eluted in 1x SDS sample buffer by heating to 95 °C for 10 min and further analyzed by SDS PAGE for 14-3-3/GAB2 association and phosphorylation status of GAB2-pS210.
For SDS-PAGE, samples were loaded on NuPAGE™ 4-12% Bis-Tris protein gels (Invitrogen) and gel electrophoresis was performed at 180 V constant in 1x MOPS buffer. […] All blots were quantified using raw images and ImageLab software (v6.0.1, BioRad): Files were imported and analyzed without further modifications. […] The quantification was exported from the analysis table and measurements of background adjusted band volumes where used for further normalization steps and graphical depiction. […]

## PP1c: recombinant catalytic subunit of PP1
  p-level of GAB2 pS210: decrease in the p-level
